Test results as given in article PMC11951083, “Highly Specific Miniaturized Fluorescent Monoacylglycerol Lipase Probes Enable Translational Research” (Journal of the American Chemical Society, 2025).

Columns and labels:
Estrogen ER alpha (h) = Estrogen ER alpha (h) (Homo sapiens, UniProt P03372); experiment: Estrogen ER alpha (h) (agonist radioligand); conditions: read-out: Inhibition Estrogen ER alpha (h) (agonist radioligand)
COX2(h) = biological target: T1, COX2(h) (Homo sapiens, UniProt P35354); experiment: COX2(h); conditions: read-out: Inhibition COX2(h)
T1 sequence (P35354 18-604): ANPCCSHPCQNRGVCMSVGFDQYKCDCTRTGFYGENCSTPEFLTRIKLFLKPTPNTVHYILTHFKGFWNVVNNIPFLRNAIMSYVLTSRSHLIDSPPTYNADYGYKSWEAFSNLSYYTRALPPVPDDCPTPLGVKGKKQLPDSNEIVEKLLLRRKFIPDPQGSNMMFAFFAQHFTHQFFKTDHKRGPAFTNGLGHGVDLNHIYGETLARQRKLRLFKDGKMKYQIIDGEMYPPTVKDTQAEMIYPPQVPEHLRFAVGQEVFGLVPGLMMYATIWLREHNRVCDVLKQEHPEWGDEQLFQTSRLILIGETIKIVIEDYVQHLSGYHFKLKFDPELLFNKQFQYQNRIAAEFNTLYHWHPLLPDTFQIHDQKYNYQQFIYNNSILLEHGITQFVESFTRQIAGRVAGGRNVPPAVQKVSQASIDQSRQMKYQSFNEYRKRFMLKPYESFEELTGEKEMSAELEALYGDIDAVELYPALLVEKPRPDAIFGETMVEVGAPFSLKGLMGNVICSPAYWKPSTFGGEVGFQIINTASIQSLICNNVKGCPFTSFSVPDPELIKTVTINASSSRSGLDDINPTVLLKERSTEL

GSK3beta (h) = GSK3beta (h) (Homo sapiens, UniProt P49841); experiment: GSK3beta (h); conditions: read-out: Inhibition GSK3beta (h)
Chain of GSK3beta (h) (P49841 whole entry): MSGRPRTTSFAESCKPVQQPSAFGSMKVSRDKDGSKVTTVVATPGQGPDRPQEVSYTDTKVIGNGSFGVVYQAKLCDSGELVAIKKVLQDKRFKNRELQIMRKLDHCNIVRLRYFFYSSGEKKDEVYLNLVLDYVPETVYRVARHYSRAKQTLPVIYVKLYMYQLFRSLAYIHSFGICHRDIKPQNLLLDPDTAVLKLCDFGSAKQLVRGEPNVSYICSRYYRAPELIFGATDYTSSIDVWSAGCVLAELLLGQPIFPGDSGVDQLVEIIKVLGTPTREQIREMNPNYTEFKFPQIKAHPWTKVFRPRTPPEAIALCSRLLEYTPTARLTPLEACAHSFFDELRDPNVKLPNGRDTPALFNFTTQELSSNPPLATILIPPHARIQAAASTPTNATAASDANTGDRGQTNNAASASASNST

beta1 (h) = beta1 (h) (Homo sapiens, UniProt P08588); experiment: beta1 (h) (agonist radioligand); conditions: read-out: Inhibition beta1 (h) (agonist radioligand)
Chain of beta1 (h) (P08588 whole entry): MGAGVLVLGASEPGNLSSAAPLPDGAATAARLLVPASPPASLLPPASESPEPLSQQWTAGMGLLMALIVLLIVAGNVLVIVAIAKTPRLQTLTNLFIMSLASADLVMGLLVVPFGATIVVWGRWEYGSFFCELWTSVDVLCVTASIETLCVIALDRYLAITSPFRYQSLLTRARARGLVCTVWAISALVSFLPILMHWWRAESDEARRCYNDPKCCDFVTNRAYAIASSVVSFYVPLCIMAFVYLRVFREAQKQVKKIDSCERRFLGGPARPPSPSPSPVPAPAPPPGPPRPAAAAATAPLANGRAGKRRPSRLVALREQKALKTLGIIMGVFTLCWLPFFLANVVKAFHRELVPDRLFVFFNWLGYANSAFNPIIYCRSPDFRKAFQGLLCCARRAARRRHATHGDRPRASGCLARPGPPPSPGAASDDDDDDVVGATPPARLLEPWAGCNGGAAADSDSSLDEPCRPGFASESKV

PDE3B (h) = PDE3B (h) (Homo sapiens, UniProt Q13370); experiment: PDE3B (h); conditions: read-out: Inhibition PDE3B (h)
Chain of PDE3B (h) (Q13370 whole entry): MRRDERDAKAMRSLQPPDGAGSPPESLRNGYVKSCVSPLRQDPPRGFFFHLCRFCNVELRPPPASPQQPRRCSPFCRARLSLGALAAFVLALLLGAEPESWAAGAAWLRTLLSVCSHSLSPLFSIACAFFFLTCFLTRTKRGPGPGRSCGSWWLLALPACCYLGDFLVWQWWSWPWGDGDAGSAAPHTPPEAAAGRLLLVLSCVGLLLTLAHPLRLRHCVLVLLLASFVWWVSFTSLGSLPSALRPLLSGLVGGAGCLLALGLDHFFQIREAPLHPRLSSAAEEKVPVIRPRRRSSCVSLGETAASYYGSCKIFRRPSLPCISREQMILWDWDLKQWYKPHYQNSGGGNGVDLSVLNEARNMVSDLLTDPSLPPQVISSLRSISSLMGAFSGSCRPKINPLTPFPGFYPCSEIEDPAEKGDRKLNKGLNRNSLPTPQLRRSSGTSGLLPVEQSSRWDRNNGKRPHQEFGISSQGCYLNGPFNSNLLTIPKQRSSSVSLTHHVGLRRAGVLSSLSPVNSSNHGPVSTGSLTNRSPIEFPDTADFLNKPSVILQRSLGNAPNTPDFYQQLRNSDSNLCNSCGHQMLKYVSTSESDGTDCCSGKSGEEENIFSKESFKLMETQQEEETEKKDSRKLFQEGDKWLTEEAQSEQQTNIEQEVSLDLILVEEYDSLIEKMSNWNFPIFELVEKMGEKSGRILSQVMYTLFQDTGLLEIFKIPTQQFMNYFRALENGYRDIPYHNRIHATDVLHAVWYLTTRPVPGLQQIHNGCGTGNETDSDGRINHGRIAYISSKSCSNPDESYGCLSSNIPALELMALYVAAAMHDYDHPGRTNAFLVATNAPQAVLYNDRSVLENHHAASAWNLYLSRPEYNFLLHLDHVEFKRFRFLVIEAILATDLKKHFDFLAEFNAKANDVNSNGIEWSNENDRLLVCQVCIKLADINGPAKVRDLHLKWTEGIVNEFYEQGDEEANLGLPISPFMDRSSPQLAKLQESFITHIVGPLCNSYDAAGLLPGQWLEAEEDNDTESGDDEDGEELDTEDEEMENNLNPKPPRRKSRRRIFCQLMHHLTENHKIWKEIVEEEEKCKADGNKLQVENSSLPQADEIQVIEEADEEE

A1 (h) = biological target: T2, A1 (h) (Homo sapiens, UniProt P30542); experiment: A1 (h) (agonist radioligand); conditions: read-out: Inhibition A1 (h) (agonist radioligand)
T2 sequence (P30542 1-326): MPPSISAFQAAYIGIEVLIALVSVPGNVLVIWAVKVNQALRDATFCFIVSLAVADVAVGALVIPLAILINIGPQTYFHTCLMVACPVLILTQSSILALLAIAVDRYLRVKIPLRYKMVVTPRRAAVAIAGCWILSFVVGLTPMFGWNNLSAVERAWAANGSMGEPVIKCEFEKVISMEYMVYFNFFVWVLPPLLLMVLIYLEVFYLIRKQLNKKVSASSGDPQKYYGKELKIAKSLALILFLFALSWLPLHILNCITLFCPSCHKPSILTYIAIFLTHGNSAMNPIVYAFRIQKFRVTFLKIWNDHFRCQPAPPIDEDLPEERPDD

5-HT transporter (h) = 5-HT transporter (h) (Homo sapiens, UniProt P31645); experiment: 5-HT transporter (h) (antagonist radioligand); conditions: read-out: Inhibition 5-HT transporter (h) (antagonist radioligand)
Chain of 5-HT transporter (h) (P31645 whole entry): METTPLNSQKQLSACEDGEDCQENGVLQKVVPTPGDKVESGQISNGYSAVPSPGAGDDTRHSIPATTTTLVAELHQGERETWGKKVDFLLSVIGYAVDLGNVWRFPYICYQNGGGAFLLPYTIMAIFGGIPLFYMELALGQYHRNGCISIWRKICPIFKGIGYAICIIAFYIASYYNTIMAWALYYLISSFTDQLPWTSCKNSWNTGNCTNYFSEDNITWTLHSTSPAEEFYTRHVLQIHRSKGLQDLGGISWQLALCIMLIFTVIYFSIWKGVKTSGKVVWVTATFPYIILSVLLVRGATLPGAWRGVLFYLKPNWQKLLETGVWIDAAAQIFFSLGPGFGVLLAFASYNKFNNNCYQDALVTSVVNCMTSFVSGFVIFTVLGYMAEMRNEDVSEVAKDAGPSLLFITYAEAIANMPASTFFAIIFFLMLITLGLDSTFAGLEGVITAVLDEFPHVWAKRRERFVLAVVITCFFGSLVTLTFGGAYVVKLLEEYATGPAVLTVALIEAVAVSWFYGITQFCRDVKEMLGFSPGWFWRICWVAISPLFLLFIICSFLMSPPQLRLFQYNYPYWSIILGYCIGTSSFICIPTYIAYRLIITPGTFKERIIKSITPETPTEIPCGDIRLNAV

kappa (h) (KOP) = kappa (h) (KOP) (Homo sapiens, UniProt P41145); experiment: kappa (h) (KOP) (agonist radioligand); conditions: read-out: Inhibition kappa (h) (KOP) (agonist radioligand)
Chain of kappa (h) (KOP) (P41145 whole entry): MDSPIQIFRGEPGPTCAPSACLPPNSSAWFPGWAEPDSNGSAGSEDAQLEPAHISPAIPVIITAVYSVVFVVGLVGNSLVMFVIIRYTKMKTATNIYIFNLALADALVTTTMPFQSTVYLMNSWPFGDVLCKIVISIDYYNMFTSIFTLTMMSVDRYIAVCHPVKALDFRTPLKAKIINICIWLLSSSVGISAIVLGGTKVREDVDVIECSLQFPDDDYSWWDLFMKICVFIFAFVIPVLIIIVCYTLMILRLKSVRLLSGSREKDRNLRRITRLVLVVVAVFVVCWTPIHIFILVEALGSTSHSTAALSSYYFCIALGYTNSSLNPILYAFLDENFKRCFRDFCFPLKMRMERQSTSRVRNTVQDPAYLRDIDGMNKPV

PPARgamma (h) = biological target: T3, PPARgamma (h) (Homo sapiens, UniProt P37231); experiment: PPARgamma (h) (agonist radioligand); conditions: read-out: Inhibition PPARgamma (h) (agonist radioligand)
T3 sequence (P37231 1-505): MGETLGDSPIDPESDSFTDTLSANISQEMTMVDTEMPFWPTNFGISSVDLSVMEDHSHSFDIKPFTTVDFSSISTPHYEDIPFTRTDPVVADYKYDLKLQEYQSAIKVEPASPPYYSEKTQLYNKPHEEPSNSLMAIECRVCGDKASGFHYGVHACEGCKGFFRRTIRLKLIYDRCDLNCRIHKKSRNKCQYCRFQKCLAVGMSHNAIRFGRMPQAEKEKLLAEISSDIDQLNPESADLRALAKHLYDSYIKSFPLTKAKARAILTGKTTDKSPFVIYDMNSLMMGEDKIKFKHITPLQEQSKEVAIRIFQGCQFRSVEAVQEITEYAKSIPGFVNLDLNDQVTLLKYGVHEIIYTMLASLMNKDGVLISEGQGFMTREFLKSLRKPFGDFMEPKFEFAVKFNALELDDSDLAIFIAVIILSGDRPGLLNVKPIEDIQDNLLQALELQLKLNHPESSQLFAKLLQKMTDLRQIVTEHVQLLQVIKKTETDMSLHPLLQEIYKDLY

[1] = biological target: norepinephrine transporter (h) (Homo sapiens, UniProt P23975); experiment: norepinephrine transporter (h) (antagonist radioligand); conditions: read-out: Inhibition norepinephrine transporter (h) (antagonist radioligand)
Chain of norepinephrine transporter (h) (P23975 whole entry): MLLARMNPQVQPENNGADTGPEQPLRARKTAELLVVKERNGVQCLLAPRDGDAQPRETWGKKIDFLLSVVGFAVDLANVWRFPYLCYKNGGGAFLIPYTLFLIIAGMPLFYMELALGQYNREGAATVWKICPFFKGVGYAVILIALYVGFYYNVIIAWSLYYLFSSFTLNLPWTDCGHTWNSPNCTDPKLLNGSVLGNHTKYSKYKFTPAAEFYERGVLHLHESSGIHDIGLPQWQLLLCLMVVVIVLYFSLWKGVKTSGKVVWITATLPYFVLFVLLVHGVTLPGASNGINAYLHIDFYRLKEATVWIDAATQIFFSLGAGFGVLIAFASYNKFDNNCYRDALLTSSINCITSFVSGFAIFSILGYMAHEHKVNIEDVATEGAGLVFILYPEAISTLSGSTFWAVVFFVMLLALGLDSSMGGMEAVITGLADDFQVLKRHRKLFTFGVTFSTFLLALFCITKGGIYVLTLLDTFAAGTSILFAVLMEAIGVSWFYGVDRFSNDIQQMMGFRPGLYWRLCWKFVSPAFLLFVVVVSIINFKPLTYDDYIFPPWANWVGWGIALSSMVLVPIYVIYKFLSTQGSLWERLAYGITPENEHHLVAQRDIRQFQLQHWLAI

Chain of Estrogen ER alpha (h) (P03372 whole entry): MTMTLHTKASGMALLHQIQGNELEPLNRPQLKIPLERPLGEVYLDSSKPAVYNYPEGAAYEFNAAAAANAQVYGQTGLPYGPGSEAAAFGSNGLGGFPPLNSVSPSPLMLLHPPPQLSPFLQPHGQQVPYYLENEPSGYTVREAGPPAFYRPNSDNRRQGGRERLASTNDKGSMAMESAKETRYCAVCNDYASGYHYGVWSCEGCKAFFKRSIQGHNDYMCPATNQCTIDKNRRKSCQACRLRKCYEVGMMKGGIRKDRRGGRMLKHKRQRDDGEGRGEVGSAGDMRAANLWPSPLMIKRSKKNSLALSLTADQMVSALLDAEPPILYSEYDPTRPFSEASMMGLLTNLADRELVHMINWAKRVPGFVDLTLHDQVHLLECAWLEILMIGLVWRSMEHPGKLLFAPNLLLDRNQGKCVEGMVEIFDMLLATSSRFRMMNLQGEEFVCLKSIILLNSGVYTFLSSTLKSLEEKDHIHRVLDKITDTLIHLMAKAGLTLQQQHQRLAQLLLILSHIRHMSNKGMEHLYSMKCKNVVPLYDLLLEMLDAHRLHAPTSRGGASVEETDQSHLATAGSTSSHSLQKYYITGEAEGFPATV

Work on `O=C(O[C@H](CO)C(F)(F)F)N1CC2(CC(CC3=C4C=CC=[N+]4[B-](F)(F)n4cccc43)C2)C1` [Compound 1] yielded an inhibition at 10 µM (Estrogen ER alpha (h)) of 17.8%, an inhibition at 10 µM (COX2(h)) of 45.5% and an inhibition at 10 µM (GSK3beta (h)) of 3.2%. For the same compound, the inhibition at 10 µM (beta1 (h)) was -3.3%, the inhibition at 10 µM (PDE3B (h)) was 15.9% and the inhibition at 10 µM (A1 (h)) was -3.9%. For the same compound, the inhibition at 10 µM (5-HT transporter (h)) was 13%, the inhibition at 10 µM (kappa (h) (KOP)) was 7.8% and the inhibition at 10 µM (PPARgamma (h)) was 74.3%. The inhibition at 10 µM [1] was 7.4%.
`O=C(OC(C(F)(F)F)C(F)(F)F)N1CC2(CC(CC3=C4C=CC=[N+]4[B-](F)(F)n4cccc43)C2)C1` [Compound 2] showed an inhibition at 10 µM (Estrogen ER alpha (h)) of -0.8%, an inhibition at 10 µM (COX2(h)) of 31.9% and an inhibition at 10 µM (GSK3beta (h)) of -1.7%. For the same compound, the inhibition at 10 µM (beta1 (h)) was -1.7%, the inhibition at 10 µM (PDE3B (h)) was 6.3% and the inhibition at 10 µM (A1 (h)) was 4.4%. It also gave an inhibition at 10 µM (5-HT transporter (h)) of -4.8%, an inhibition at 10 µM (kappa (h) (KOP)) of 5.9% and an inhibition at 10 µM (PPARgamma (h)) of 56.3%. For the same compound, the inhibition at 10 µM [1] was -0.5%.
For `O=C(OC(C(F)(F)F)C(F)(F)F)N1CC2(CC(CC3=C4C=CC(c5ccc[nH]5)=[N+]4[B-](F)(F)n4cccc43)C2)C1` [Compound 2a], the inhibition at 10 µM (Estrogen ER alpha (h)) was -13.7%, the inhibition at 10 µM (COX2(h)) was 49.5% and the inhibition at 10 µM (GSK3beta (h)) was -1.5%. For the same compound, the inhibition at 10 µM (beta1 (h)) was -3.3%, the inhibition at 10 µM (PDE3B (h)) was 12.6% and the inhibition at 10 µM (A1 (h)) was -1%. For the same compound, the inhibition at 10 µM (5-HT transporter (h)) was -12.9%, the inhibition at 10 µM (kappa (h) (KOP)) was 4.9% and the inhibition at 10 µM (PPARgamma (h)) was 20%. It also gave an inhibition at 10 µM [1] of 6.3%.
With `O=C1CO[C@H]2CCN(C(=O)N3CC4(CC(CC5=C6C=CC(c7ccc[nH]7)=[N+]6[B-](F)(F)n6cccc65)C4)C3)C[C@H]2N1` [Compound 4a] the inhibition at 10 µM (Estrogen ER alpha (h)) was -2.5%, the inhibition at 10 µM (COX2(h)) was 48.9% and the inhibition at 10 µM (GSK3beta (h)) was -15%. It also gave an inhibition at 10 µM (beta1 (h)) of -1.2%, an inhibition at 10 µM (PDE3B (h)) of 13% and an inhibition at 10 µM (A1 (h)) of 8.7%. The inhibition at 10 µM (5-HT transporter (h)) was -9.6%, the inhibition at 10 µM (kappa (h) (KOP)) was 22.7% and the inhibition at 10 µM (PPARgamma (h)) was 20%. The inhibition at 10 µM [1] was 12.2%.
`O=C(N1CC2(CC(CC3=C4C=CC=[N+]4[B-](F)(F)n4cccc43)C2)C1)N1CC2(CC(n3cnc(C4CC4)n3)C2)C1` [Compound 5] showed an inhibition at 10 µM (Estrogen ER alpha (h)) of 35%, an inhibition at 10 µM (COX2(h)) of 23.8% and an inhibition at 10 µM (GSK3beta (h)) of -1.2%. For the same compound, the inhibition at 10 µM (beta1 (h)) was 0.6%, the inhibition at 10 µM (PDE3B (h)) was 10.7% and the inhibition at 10 µM (A1 (h)) was 1.3%. The inhibition at 10 µM (5-HT transporter (h)) was 56.5%, the inhibition at 10 µM (kappa (h) (KOP)) was 10.3% and the inhibition at 10 µM (PPARgamma (h)) was 5.6%. The inhibition at 10 µM [1] was 8.6%.
